Data on 14 molecules can be found in ChEMBL document CHEMBL5360550 (Eur J Med Chem, 2023).

Calls of active or inactive are those of the source. No cut-off for these calls is given here.

The test system of data set [1] is Trypanosoma brucei rhodesiense. As to the kind of experiment: In vivo antiprotozoal activity against acute hemolymphatic stage Trypanosoma brucei rhodesiense STIB900 infected in NMRI mouse assessed as reduction of parasitaemia at 5 mg/kg, ip for 4 days consecutive and measured upto 60 days relative to control. Format: functional. The arrangement: scale not given: the % may be the effect or the level left.

The test system of data set [2] is AT rich DNA. As to the kind of experiment: Binding affinity to double stranded [poly(dA-dT)2] DNA (unknown origin) minor groove assessed as increase in positive induced CD signal in 360 to 400 nanometer absorption range incubated for 10 mins by circular dichroism spectroscopy. Format: nucleic-acid assay. For orientation: Circular dichroism is the unequal absorption of left and right circularly polarised light.

A short description of data set [3]: Selectivity index, ratio of IC50 for cytotoxicity against rat L6 cells to IC50 for antiprotozoal activity against chloroquine resistant Plasmodium falciparum K1 infected in human erythrocytes. The format is toxicity, cell-based. Particulars: read-out: Ratio IC50.
Data set [4] is described as follows: Selectivity index, ratio of IC50 for cytotoxicity against rat L6 cells to IC50 for antiprotozoal activity against long slender blood stream form Trypanosoma brucei rhodesiense STIB900. Format: toxicity, cell-based. The conditions noted are these: read-out: Ratio IC50.
The next data set concerns Plasmodium falciparum. As to the kind of experiment: Antiprotozoal activity against chloroquine resistant Plasmodium falciparum K1 infected in human erythrocytes assessed as parasite growth inhibition incubated for 48 hrs by [3H]-hypoxanthine incorporation assay based Betaplate liquid scintillation counter method. The format is functional, organism-based. Particulars: K1, Erythrocyte.

For data set [5], the system named is Trypanosoma brucei rhodesiense. Kind of data set: Antiprotozoal activity against long slender blood stream form Trypanosoma brucei rhodesiense STIB900 assessed as parasite growth inhibition incubated for 70 hrs by resazurin based microplate fluorometer analysis. Format: functional, organism-based. Particulars: STIB900, 70 h.
Data set [6] is described as follows: Cytotoxicity against rat L6 cells assessed as reduction in cell viability incubated for 70 hrs by Alamar blue based microplate fluorescence assay. The format is toxicity. On the technique in general: Resazurin is reduced to fluorescent resorufin, in cell work by metabolically active cells.
The test system of data set [7] is AT rich DNA.
Description: Binding affinity to double stranded [poly(dA-dT)2] DNA (unknown origin) minor groove assessed as increase in melting temperature by spectrophotometer analysis
Data set [8] concerns Trypanosoma brucei rhodesiense. Kind of data set: In vivo antiprotozoal activity against acute hemolymphatic stage Trypanosoma brucei rhodesiense STIB900 infected in NMRI mouse assessed as reduction of parasitaemia at 10 mg/kg, ip for 4 days consecutive and measured upto 60 days relative to control. The format is functional. The arrangement: scale not given: the % may be the effect or the level left. Particulars: time 4 day.

A word on the IC50: it is the concentration that inhibits the measured activity by half. By ΔTm is commonly meant the change in melting temperature against a reference sample. Turning to `N=C(N)c1ccc(-c2ccc(-c3cc4cc(C(=N)N)ccc4[nH]3)o2)cc1`, the Activity in data set [1] (time 4 day) was 75%. The result in the data set with AT rich DNA [2] was Active. The selectivity ratio in data set [3] turned out to be 5070; in data set [4], 7100. For the same molecule, the half-inhibitory concentration (IC50) in the data set on Plasmodium falciparum was 2.8 nM; in [5] it was 2 nM. Also, the IC50 at 70 h in [6] is 14200 nM. Also, the ΔTm with AT rich DNA [7] was determined as 29 °C.
Consider `Cc1cc(C(=N)N)ccc1-c1ccc(-c2cc3ccc(C(=N)N)cc3[nH]2)o1`, for which the result in data set [1] (time 4.0 day) was inactive. Also, the selectivity ratio in [4] was 850. The half-maximal inhibitory concentration (IC50) in [5] is 6 nM. Moreover, the IC50 at 70 h in data set [6] stood at 5100 nM. Further, the ΔTm with AT rich DNA [7] is greater than 30 °C.
In the case of `N=C(N)c1ccc(-c2ccc(-c3nc4ccc(C(=N)N)cc4[nH]3)s2)cc1`, the selectivity ratio came out at 1900 in [3] and 829 in data set [4]. The IC50 is 11.8 nM in the data set with Plasmodium falciparum and 27 nM in data set [5]. Moreover, in data set [6], the IC50 at 70 h was 22400 nM. Also, the Activity in data set [8] turned out to be 75%. Besides, in the data set with AT rich DNA [7], the shift in melting temperature (ΔTm) was greater than 30 °C.
With `N=C(N)c1ccc(-c2ccc(-c3cc4cc(C(=N)N)ccc4[nH]3)s2)cc1`, in [1] (time 4 day), the Activity came to 50%. Moreover, the results for the selectivity ratio in data set [3] and in data set [4] were 6070 and 2830, respectively. Moreover, the IC50 in the data set with Plasmodium falciparum came to 2.8 nM; in data set [5] it was 6 nM. Moreover, the IC50 at 70 h in data set [6] came out at 17000 nM. In addition, in the data set with AT rich DNA [7], the ΔTm was 29 °C.
Consider `N=C(N)c1ccc(-c2ccc(-c3cc4ccc(C(=N)N)cc4[nH]3)o2)cc1`, for which, in data set [1] (time 4.0 day), the outcome was inactive. Further, in the data set with AT rich DNA [2], the outcome was Active. Besides, the selectivity ratio was 2800 in data set [3] and 1080 in data set [4]. Further, the IC50 in the data set with Plasmodium falciparum came out at 4.6 nM; in [5] it was 12 nM. Besides, in data set [6], the IC50 at 70 h was 12900 nM. Besides, in the data set on AT rich DNA [7], the ΔTm is greater than 30 °C.
Turning to `N=C(N)c1ccc(-c2ccc(-c3ccc(C(=N)N)cc3)o2)cc1` [FURAMIDINE], the Activity in data set [1] (time 4 day) is reported as 25%. For the same molecule, the ΔTm in the data set on AT rich DNA [7] worked out at 25 °C.
On to `N=C(N)c1ccc(-c2ccc(-c3cc4ccc(C(=N)N)cc4[nH]3)s2)cc1`, for which the outcome in data set [1] (time 4.0 day) was inactive. In addition, the outcome in the data set with AT rich DNA [2] was Active. In addition, the values for the selectivity ratio in data set [3] and in data set [4] were 1720 and 1030, respectively. Also, the IC50 worked out at 7.2 nM in the data set with Plasmodium falciparum and 12 nM in [5]. Further, in [6], the IC50 at 70 h was determined as 12400 nM. Further, in the data set with AT rich DNA [7], the ΔTm is greater than 30 °C.
Turning to `N=C(N)c1ccc(-c2ccc(-c3cc4ccc(C(=N)N)cc4[nH]3)o2)nc1`, the Activity in [1] (time 4 day) was determined as 75%. Also, the result in the data set with AT rich DNA [2] was Active. Moreover, the selectivity ratio in data set [3] amounted to 5440; in data set [4] it was 2050. Also, the IC50 in the data set with Plasmodium falciparum was determined as 6.4 nM; in [5], 17 nM. Further, the IC50 at 70 h in [6] was found to be 34800 nM. In the data set on AT rich DNA [7], the ΔTm amounted to 28 °C.
Consider `N=C(N)c1ccc2cc(-c3ccc(-c4ccc(C(=N)N)nc4)o3)[nH]c2c1`, for which the outcome in [1] (time 4.0 day) was inactive. Besides, the selectivity ratio in [3] worked out at 3940; in data set [4], 2030. The IC50 came to 3.6 nM with Plasmodium falciparum and 7 nM in [5]. Further, in data set [6], the IC50 at 70 h is 14200 nM. Further, the shift in melting temperature (ΔTm) in the data set with AT rich DNA [7] was 28 °C.
As to `N=C(N)c1ccc(-c2ccc(-c3cc4cc(C(=N)N)ccc4[nH]3)[se]2)cc1`, the Activity in data set [1] (time 4 day) worked out at 50%. For the same molecule, in the data set on AT rich DNA [2], the outcome was Active. Moreover, the selectivity ratio in data set [3] turned out to be 5510; in data set [4] it was 7170. The figures for the IC50 (in the data set on Plasmodium falciparum; in data set [5]) were 3.9 nM and 3 nM, respectively. The IC50 at 70 h in data set [6] was determined as 21500 nM. In addition, in the data set on AT rich DNA [7], the ΔTm is greater than 30 °C.
Consider `N=C(N)c1ccc(-c2ccc(-c3nc4cc(C(=N)N)ccc4[nH]3)o2)cc1`, for which the Activity in data set [1] (time 4 day) is 25%. The selectivity ratio in data set [3] amounted to 105; in data set [4] it was 82. The IC50 stood at 95.8 nM in the data set with Plasmodium falciparum and 122 nM in data set [5]. Further, the IC50 at 70 h in data set [6] was found to be 10100 nM. In addition, the ΔTm in the data set with AT rich DNA [7] was determined as 25 °C.
Turning to `N=C(N)c1ccc(-c2ccc(-c3cc4ccc(C(=N)N)cc4[nH]3)s2)nc1`, the outcome in [1] (time 4.0 day) was inactive. In addition, the selectivity ratio in [4] was 966. Moreover, the IC50 in data set [5] was 15 nM. For the same molecule, in data set [6], the IC50 at 70 h came to 14500 nM. Moreover, in the data set with AT rich DNA [7], the ΔTm was found to be 29 °C.
As to `N=C(N)c1ccc(-c2ccc(-c3cc4cc(C(=N)N)ccc4[nH]3)o2)nc1`, in data set [1] (time 4 day), the Activity was determined as 75%. Besides, the selectivity ratio in data set [3] worked out at 8690; in [4], 8400. For the same molecule, the 50% inhibitory concentration (IC50) worked out at 5.8 nM with Plasmodium falciparum and 6 nM in data set [5]. Also, in data set [6], the IC50 at 70 h amounted to 50400 nM. For the same molecule, in the data set on AT rich DNA [7], the ΔTm was found to be 27 °C.
For the molecule `COc1cc(C(=N)N)ccc1-c1ccc(-c2cc3ccc(C(=N)N)cc3[nH]2)o1`, the selectivity ratio in [4] is 283. For the same molecule, the IC50 in data set [5] came out at 39 nM. Further, in data set [6], the half-maximal inhibitory concentration (IC50) at 70 h was determined as 11000 nM. Besides, in the data set with AT rich DNA [7], the thermal shift (ΔTm) was determined as 27 °C.
